Data taken from patent publication US10206394B2, “Herbicidal compounds” (Syngenta Participations AG, priority 2014, dated 2019).
Where two headings read alike, the source gives them in different places.

Experiments:
Test in all cases: Glasshouse assay for herbicidal activity (pre- and post-emergence), percentage phytotoxicity
Format in all cases: in vivo
[1] = system: Alopecurus myosuroides (ALOMY); conditions: Alopecurus myosuroides, rate 250 g/ha
Method in brief: (§1)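 Visual phytotoxicity score, 0% = undamaged to 100% = total kill, read 20 days after treatment for PRE and 15 days for POST. Pots of standard soil; treatment at day 1 (PRE) or roughly day 12 (POST). Glasshouse: 16 h photoperiod, 65% RH, 24/18 or 20/16 °C by climate type.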

Avena fatua (AVEFA) = conditions: Avena fatua, rate 250 g/ha
Method in brief: as §1

Lolium perenne (LOLPE) = conditions: Lolium perenne, rate 250 g/ha
Method in brief: as §1

[2] = system: Echinochloa crus-galli (ECHCG); conditions: Echinochloa crus-galli, rate 250 g/ha
Method in brief: as §1

[3] = post-emergence, 360 h, POST-emergence, visual score 15 DAA (100%=total damage, 0%=no damage), read-out: Post-emergence herbicidal activity (percentage phytotoxicity) ALOMY POST
[4] = pre-emergence, 480 h, PRE-emergence, visual score 20 DAA (100%=total damage, 0%=no damage), read-out: Pre-emergence herbicidal activity (percentage phytotoxicity) ALOMY PRE
[5] = post-emergence, 360 h, POST-emergence, visual score 15 DAA (100%=total damage, 0%=no damage), read-out: Post-emergence herbicidal activity (percentage phytotoxicity) AVEFA POST
[6] = pre-emergence, 480 h, PRE-emergence, visual score 20 DAA (100%=total damage, 0%=no damage), read-out: Pre-emergence herbicidal activity (percentage phytotoxicity) AVEFA PRE
[7] = post-emergence, 360 h, POST-emergence, visual score 15 DAA (100%=total damage, 0%=no damage), read-out: Post-emergence herbicidal activity (percentage phytotoxicity) LOLPE POST
[8] = pre-emergence, 480 h, PRE-emergence, visual score 20 DAA (100%=total damage, 0%=no damage), read-out: Pre-emergence herbicidal activity (percentage phytotoxicity) LOLPE PRE
[9] = post-emergence, 360 h, POST-emergence, visual score 15 DAA (100%=total damage, 0%=no damage), read-out: Post-emergence herbicidal activity (percentage phytotoxicity) ECHCG POST
[10] = pre-emergence, 480 h, PRE-emergence, visual score 20 DAA (100%=total damage, 0%=no damage), read-out: Pre-emergence herbicidal activity (percentage phytotoxicity) ECHCG PRE

| Structure (SMILES) | pest or weed control at 250 g/ha [1, 3] | pest or weed control at 250 g/ha [1, 4] | pest or weed control at 250 g/ha (Avena fatua (AVEFA); [5]) | pest or weed control at 250 g/ha (Avena fatua (AVEFA); [6]) | pest or weed control at 250 g/ha (Lolium perenne (LOLPE); [7]) | pest or weed control at 250 g/ha (Lolium perenne (LOLPE); [8]) | pest or weed control at 250 g/ha [2, 9] | pest or weed control at 250 g/ha [2, 10] |
| --- | --- | --- | --- | --- | --- | --- | --- | --- |
| CCc1cc(OCC(F)(F)F)cc(C)c1C1C(=O)CC(CC(=O)NC(C)(C)C)C1=O (centres unmarked) [Compound B165] | 100% | 100% | 100% | 100% | 100% | 100% | 100% | 100% |
| C#CCNC(=O)CC1CC(=O)C(c2c(C)cc(OCC(F)(F)F)cc2CC)C1=O (centres unmarked) [Compound B166] | 100% | 100% | 100% | 100% | 100% | 100% | 100% | 100% |
| CCc1cc(OCC(F)(F)F)cc(C)c1C1C(=O)CC(CC(N)=O)C1=O (centres unmarked) [Compound B167] | 100% | 100% | 100% | 90% | 90% | 100% | 100% | 100% |
| CC#Cc1cc(C)c(C2C(=O)CC(CC(N)=O)C2=O)c(C)c1 (centres unmarked) [Compound B168] | 100% | 100% | 100% | 100% | 100% | 100% | 100% | 100% |
| CCc1cc(C)cc(C)c1C1C(=O)CC(CC(=O)N2CCOCC2)C1=O (centres unmarked) [Compound B169] | 100% | 100% | 100% | 100% | 100% | 100% | 100% | 100% |
| CCc1cc(C)cc(C)c1C1C(=O)CC(CC(=O)NC(C)(C)C)C1=O (centres unmarked) [Compound B170] | 100% | 100% | 90% | 90% | 100% | 100% | 100% | 100% |
| CCc1cc(C)cc(C)c1C1C(=O)CC(CC(N)=O)C1=O (centres unmarked) [Compound B171] | 100% | 100% | 100% | 100% | 90% | 100% | 100% | 100% |
| C/C=C/c1cc(C)c(C2C(=O)CC(CC(=O)N3CCOCC3)C2=O)c(C)c1 (centres unmarked) [Compound B172] | 90% | 80% | 90% | 80% | 90% | 100% | 100% | 100% |
| C/C=C/c1cc(C)c(C2C(=O)CC(CC(=O)NC(C)(C)C)C2=O)c(C)c1 (centres unmarked) [Compound B173] | 90% | 90% | 80% | 60% | 80% | 90% | 90% | 90% |
| C#CCNC(=O)CC1CC(=O)C(c2c(C)cc(/C=C/C)cc2C)C1=O (centres unmarked) [Compound B174] | 100% | 100% | 90% | 70% | 90% | 100% | 100% | 90% |
| C/C=C/c1cc(C)c(C2C(=O)CC(CC(N)=O)C2=O)c(C)c1 (centres unmarked) [Compound B175] | 90% | 100% | 100% | 90% | 80% | 100% | 90% | 100% |
| Cc1cc(Br)cc(C)c1C1C(=O)CC(CC(=O)NC/C=C/Cl)C1=O (centres unmarked) [Compound B176] | 80% | 90% | 80% | 60% | 80% | 90% | 80% | 80% |
| C/C=C/CNC(=O)CC1CC(=O)C(c2c(C)cc(Br)cc2C)C1=O (centres unmarked) [Compound B177] | 80% | 90% | 80% | 30% | 80% | 90% | 90% | 90% |
| Cc1cc(-c2ncc(Cl)cc2F)cc(C)c1C1C(=O)CC(CC(=O)NCC(C)(C)C)C1=O (centres unmarked) [Compound B178] | 100% | 100% | 90% | 90% | 100% | 100% | 100% | 100% |
| C=CC(C)NC(=O)CC1CC(=O)C(c2c(C)cc(C)cc2C)C1=O (centres unmarked) [Compound B179] | 90% | 90% | 80% | 70% | 90% | 100% | 100% | 100% |
| COCC(C)(C)NC(=O)CC1CC(=O)C(c2c(C)cc(C)cc2C)C1=O (centres unmarked) [Compound B180] | 90% | 90% | 90% | 60% | 80% | 90% | 90% | 90% |
| Cc1cc(-c2ncc(F)cc2F)cc(C)c1C1C(=O)CC(CC(=O)NCc2ccccc2)C1=O (centres unmarked) [Compound B181] | 100% | 70% | 100% | 70% | 100% | 100% | 100% | 100% |
| CC#Cc1cc(C)c(C2C(=O)CC(CC(=O)NCc3cccc(Cl)c3)C2=O)c(C)c1 (centres unmarked) [Compound B182] | 100% | 100% | 100% | 90% | 100% | 100% | 100% | 100% |
| CC#Cc1cc(C)c(C2C(=O)CC(CC(=O)NCc3cccc(F)c3)C2=O)c(C)c1 (centres unmarked) [Compound B183] | 100% | 100% | 100% | 90% | 90% | 100% | 100% | 100% |
| CC#Cc1cc(C)c(C2C(=O)CC(CC(=O)NCc3ccc(OC)cc3)C2=O)c(C)c1 (centres unmarked) [Compound B184] | 90% | 90% | 90% | 90% | 90% | 100% | 100% | 100% |
| CC#Cc1cc(C)c(C2C(=O)CC(CC(=O)NCc3ccccc3)C2=O)c(C)c1 (centres unmarked) [Compound B185] | 100% | 80% | 100% | 60% | 100% | 70% | 100% | 100% |
| CC#Cc1cc(C)c(C2C(=O)CC(CC(=O)NCc3ccc(C#N)cc3)C2=O)c(C)c1 (centres unmarked) [Compound B186] | 90% | 90% | 90% | 100% | 90% | 90% | 100% | 100% |
